Data from patent US6583147B1, “Pyrazolopyrimidinone derivatives for the treatment of impotence” (Dong A Pharm Co., Ltd., priority 1998, dated 2003).
Values after ≈ are worked out from the molar mass of the structure shown. Like-named read-outs stand apart in the source and are kept apart here.

Legend:
[1] = Solubility in buffer solution in pH=2&5; assay type: physicochemical; conditions: 20 °C, thermodynamic from solid
Protocol: According to that defined in the Korea Pharmacopoeia, citrate-HCl buffer (pH 2) and citrate-NaOH buffer (pH 5) solutions were added to the powdered compounds of formula 1, respectively. After subsequent severe shaking for 30 sec every 5 min in […] for 30 min, the level of compounds in the filtrate was measured by high performance liquid chromatography.

[2] = test system: rats; experiment: Penile erection test using rats; assay type: in vivo, rat; conditions: oral single dose 10 mg/kg in 0.5% methyl cellulose, observed for 2 hours
[3] = Acute oral toxicity test in rats; conditions: SD, rat, in vivo, 1 g/kg; rats, oral single dose; read-out: lethal dose (LD50) of oral administration
[4] = biological target: T1, Phosphodiesterase-5 enzyme (PDE 5) (Homo sapiens, UniProt O76074); experiment: Test for phosphodiesterase-5 (PDE 5) activity; assay type: biochemical; conditions: PDE 5 fraction from human corpus cavernosal tissues
T1 construct: separated by HPLC (Mono Q anion exchange column) with concentration gradient of 0-500 mM NaCl to elute PDE isozymes; from tissue; host or cells: human corpus cavernosal tissue

[5] = biological target: T2, Phosphodiesterase-3 enzyme (PDE 3) (Oryctolagus cuniculus, UniProt G1ST54); experiment: Test for phosphodiesterase-3 (PDE 3) activity; assay type: biochemical; conditions: PDE 3 fraction from platelets of a rabbit
T2 construct: The supernatant was separated by DEAE-cellulose column chromatography (Whatman DE52 bead); from tissue; host or cells: rabbit platelets
T2 sequence (G1ST54 1-1128): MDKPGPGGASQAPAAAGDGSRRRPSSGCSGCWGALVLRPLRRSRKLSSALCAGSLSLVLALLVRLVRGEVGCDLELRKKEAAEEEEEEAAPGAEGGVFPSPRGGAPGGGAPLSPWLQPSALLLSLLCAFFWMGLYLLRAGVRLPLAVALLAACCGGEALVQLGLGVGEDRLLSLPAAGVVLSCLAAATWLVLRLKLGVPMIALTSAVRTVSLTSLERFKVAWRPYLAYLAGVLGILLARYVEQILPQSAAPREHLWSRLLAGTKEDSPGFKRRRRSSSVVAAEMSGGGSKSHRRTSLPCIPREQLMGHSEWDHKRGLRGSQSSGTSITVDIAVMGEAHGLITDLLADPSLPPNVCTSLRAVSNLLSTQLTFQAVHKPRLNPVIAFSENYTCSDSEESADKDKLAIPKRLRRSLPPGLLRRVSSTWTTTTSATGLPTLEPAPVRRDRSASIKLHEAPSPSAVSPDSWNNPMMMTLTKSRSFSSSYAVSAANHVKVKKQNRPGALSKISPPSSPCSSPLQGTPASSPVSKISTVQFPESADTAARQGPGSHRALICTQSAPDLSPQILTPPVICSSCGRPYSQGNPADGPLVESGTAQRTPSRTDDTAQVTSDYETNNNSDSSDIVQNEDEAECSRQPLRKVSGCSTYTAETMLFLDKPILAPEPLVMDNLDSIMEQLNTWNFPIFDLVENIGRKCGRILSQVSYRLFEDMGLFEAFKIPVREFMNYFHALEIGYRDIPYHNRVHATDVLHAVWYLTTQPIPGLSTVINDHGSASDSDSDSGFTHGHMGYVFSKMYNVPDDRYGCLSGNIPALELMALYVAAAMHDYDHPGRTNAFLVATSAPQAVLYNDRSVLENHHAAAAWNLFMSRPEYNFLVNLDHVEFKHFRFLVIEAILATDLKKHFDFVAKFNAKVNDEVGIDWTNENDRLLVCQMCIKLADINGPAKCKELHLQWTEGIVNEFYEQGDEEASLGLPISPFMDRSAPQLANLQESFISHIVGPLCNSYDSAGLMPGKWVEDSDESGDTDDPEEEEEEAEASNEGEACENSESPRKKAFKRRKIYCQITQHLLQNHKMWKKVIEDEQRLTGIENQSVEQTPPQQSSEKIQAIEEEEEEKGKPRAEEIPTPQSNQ
Protocol: Phosphodiesterase-3 enzyme (PDE 3) was separated from platelets of a rabbit. About 60 ml of blood was collected from a puncture of the abdominal artery of a rabbit in heparinized syringes. Platelet-rich plasma was harvested by centrifugation for 5 min at 450×g and further centrifuged for 15 min at 1,200×g to precipitate the platelets. The platelets were resuspended in homogenizing buffer (50 mM Tris-HCl, 1 mM MgCl2, pH 7.4), homogenized at 4° C. and ultrasonicated (30 sec/ml). The homogenized solution was centrifuged (105,000×g) for 1 hr at 4° C. to obtain the supernatant in which PDE was dissolved. The supernatant was separated by DEAE-cellulose column chromatography (Whatman DE52 bead) by using eluent (50 mM Tris-HCl, 3.75mM2-mercaptoethanol, pH 6.0) with concentration gradient of 0-1 M sodium acetate to elute PDE isozymes. The PDE activity was measured on the each column fraction by the following process to separate PDE 3 fraction and the inhibition for PDE 3 of the compounds of formula 1 was measured by using the fraction.
To 1.5 ml tube containing 100 ul of reaction mixture (15 mM Tris-HCl, 5 mM MgCl2, 0.5 mg/ml BSA, pH 7.4) were added appropriate amount of PDE 3 fraction and PDE inhibitor and the solution was mixed well. After [^3H]-cAMP or [^3H]-cGMP (500 nM, 2 uCi/ml) was added, the mixture was reacted in incubator of 30° C. for about 1 hour and the reaction was quenched by putting the tube into boiling water for about 45 seconds to 2 min. The tube was chilled in ice bath for about 5 min. To this tube was added snake venom (1 mg/ml, 100 ul) or 5′-nucleotidase (0.1 unit/tube) and the mixture was reacted in incubator of 37° C. for 10 min and chilled in ice bath. 3 times volume of methanol to the resin was added to the anion exchange resin (Bio-Rad resin, AG1-X2, 200-400 mesh) which had been already washed with 0.5 N HCl, H2O, 0.5 N NaOH, H2O, 0.5 N HCl and H2O in order and adjusted to pH 5. Then 1 ml of the pretreated resin was added to the each tube with vortexing. The mixture was left at 4° C. for 15 min with occasional vortexing and centrifuged (10,000 rpm) for about 5 min to sediment the resin. The supernatant (700 ul) was transferred to a liquid scintillation vial, and mixed with 10 ml of scintillation cocktail. After stabilizing the mixture by leaving it overnight, the radioactivity of the tube was measured by β-counter.

[6] = Metabolism in rat liver (9,000xg supernatant fraction with NADPH); assay type: in vitro ADME; conditions: 10 ug/ml, 37° C., 1 hr, rat liver 9,000xg supernatant with NADPH generating solution
Protocol: In order to evaluate the extent of metabolism of the compounds of formula 1, the metabolism in rat liver was studied as below similar to the reported method (C. L. Litterist, E. G. Mimnaugh, R. I. Reagan and T. G. Gram., Drug. Metabol. Disposit., 1975, 3, 259-265). In short, the disappearance of compounds after incubation in 9, 000×g supernatant fraction of rat liver homogenate in the presence of NADPH (reduced nicotinamide adenine dinucleotide phosphate) was evaluated.
First, Sprague-Dawley rat (Korea Experiment Animals, SPF) liver was isolated after perfusion through portal vein with 0.1 M phosphate buffer of pH 7.0 using tissue homogenizer at 4° C. After centrifugation at 9,000×g for 20 min, the supernatants were collected.
The compound stock solution was spiked (10 ug/ml) into each of the eppendorf tubes containing 1 ml of the mixed solution composing 1 volume of supernatants and 2 volumes of generating solution. The generating solution contains 1 mM NADP, 10 mM glucose-6-phosphate, 50 mM nicotinamide and 5 MM MgCl2 in 0.1 M phosphate buffer of pH 7.0. After vortex-mixing, each test tube was incubated in a water bath kept at 37° C. After 1 hr, was added acetonitrile to the reaction mixture and centrifuged. 100 ul of aliquot of the supernatant was sampled from each test tube for measuring the remnants by high performance liquid chromatography.

[7] = citrate-HCl buffer, pH 2, aqueous buffer, citrate-HCl buffer (pH 2), read-out: solubility pH 2
[8] = citrate-NaOH buffer, pH 5, aqueous buffer, citrate-NaOH buffer (pH 5), read-out: solubility pH 5

Compound	solubility at 30 min [1, 7] [µg/mL]	solubility at 30 min [1, 8] [µg/mL]	PEI (penile erection index) [2]	genital grooming (number of genital groomings) [2]	LD50 [3] [mg/kg]	IC50 [4] [nM]	IC50 [5] [µM]	remnants (%) [6] [%]
CCCOc1ccc(S(=O)(=O)Nc2ccncc2)cc1-c1nc2c(CCC)nn(C)c2c(=O)[nH]1 [Example 35, 5-[2-propyloxy-5-(4-pyridylamidosulfonyl)phenyl]-1-methyl-3-propyl-1,6-dihydro-7H-pyrazolo(4,3-d)pyrimidin-7-one]	11 (≈ 22.8 µM)	1 (≈ 2.07 µM)	200.0 ± 0.0	2.0 ± 0.0	> 1000	0.935	> 207	90.6
CCOc1ccc(S(=O)(=O)Nc2ccncc2)cc1-c1nc2c(CC(C)C)nn(C)c2c(=O)[nH]1 [Example 37, 5-[2-ethoxy-5-(4-pyridylamidosulfonyl)phenyl]-1-methyl-3-isobutyl-1,6-dihydro-7H-pyrazolo(4,3-d)pyrimidin-7-one]	99 (≈ 205 µM)	7 (≈ 14.5 µM)	166.7 ± 57.7	1.3 ± 0.6	> 1000	0.897		94.8
CCCOc1ccc(S(=O)(=O)NCc2ccncc2)cc1-c1nc2c(CCC)nn(C)c2c(=O)[nH]1 [Example 44, 5-[2-propyloxy-5-(4-pyridylmethylamidosulfonyl)phenyl]-1-methyl-3-propyl-1,6-dihydro-7H-pyrazolo(4,3-d)pyrimidin-7-one]	373 (≈ 751 µM)	1 (≈ 2.01 µM)	166.7 ± 115.5	1.3 ± 0.6	> 1000	0.328	12.6	49.8
CCCc1nn(C)c2c(=O)[nH]c(-c3cc(S(=O)(=O)NCc4cccnc4)ccc3OCC)nc12 [Example 47, 5-[2-ethoxy-5-(3-pyridylmethylamidosulfonyl)phenyl]-1-methyl-3-propyl-1,6-dihydro-7H-pyrazolo(4,3-d)pyrimidin-7-one]			200.0 ± 100.0	3.0 ± 1.0	> 1000	2.78	20.9	
CCCOc1ccc(S(=O)(=O)NCc2ccccn2)cc1-c1nc2c(CCC)nn(C)c2c(=O)[nH]1 [Example 52, 5-[2-propyloxy-5-(2-pyridylmethylamidosulfonyl)phenyl]-1-methyl-3-propyl-1,6-dihydro-7H-pyrazolo(4,3-d)pyrimidin-7-one]			233.3 ± 57.7	3.0 ± 1.0	> 1000	9.89	> 201	
CCCOc1ccc(S(=O)(=O)NC2CCN(C)C2)cc1-c1nc2c(CCC)nn(C)c2c(=O)[nH]1 (centres unmarked) [Example 53, 5-[2-propyloxy-5-(1-methyl-3-pyrrolidinylamidosulfonyl)phenyl]-1-methyl-3-propyl-1,6-dihydro-7H-pyrazolo(4,3-d)pyrimidin-7-one]			300.0 ± 200.0	2.7 ± 2.1	> 1000	20.9	> 205	
CCOc1ccc(S(=O)(=O)NC2CCN(C)C2)cc1-c1nc2c(CC(C)C)nn(C)c2c(=O)[nH]1 (centres unmarked) [Example 54, 5-[2-ethoxy-5-(1-methyl-3-pyrrolidinylamidosulfonyl)phenyl]-1-methyl-3-isobutyl-1,6-dihydro-7H-pyrazolo(4,3-d)pyrimidin-7-one]			233.3 ± 230.9	2.7 ± 2.9	> 1000	39.1	> 205	
CCCOc1ccc(S(=O)(=O)NCC2CCN(CC)C2)cc1-c1nc2c(CCC)nn(C)c2c(=O)[nH]1 (centres unmarked) [Example 64, 5-[2-propyloxy-5-(1-ethyl-3-pyrrolidinylmethylamidosulfonyl)phenyl]-1-methyl-3-propyl-1,6-dihydro-7H-pyrazolo(4,3-d)pyrimidin-7-one]			175.0 ± 95.7	2.8 ± 0.5	> 1000	30.7	134	
CCOc1ccc(S(=O)(=O)NCC2CCN(CC)C2)cc1-c1nc2c(CC(C)C)nn(C)c2c(=O)[nH]1 (centres unmarked) [Example 66, 5-[2-ethoxy-5-(1-ethyl-3-pyrrolidinylmethylamidosulfonyl)phenyl]-1-methyl-3-isobutyl-1,6-dihydro-7H-pyrazolo(4,3-d)pyrimidin-7-one]			175.0 ± 95.7	2.8 ± 0.5	> 1000	35.8	90.4	
